{
  "source": "paper PMC4811503",
  "about": "“A method for quantification of exportin-1 (XPO1) occupancy by Selective Inhibitor of Nuclear Export (SINE) compounds” (Oncotarget, 2015)",
  "type_in_all_cases": "cell-based",
  "key": {"AML2": {"test_system": "AML2", "test": "MTT cytotoxicity assay"}, "MM.1S": {"test_system": "MM.1S", "test": "MTT cytotoxicity assay", "conditions": "Homo sapiens, MM1.S"}, "[1]": {"test_system": "nuclear export of the XPO1 cargo protein Rev-GFP in stably transfected U2OS cells", "test": "Rev-GFP assay (nuclear retention of Rev-GFP)", "conditions": "Homo sapiens", "excerpt": "For this assay we utilized biotinylated LMB (b-LMB) as a tool compound to quantify the amount of XPO1 bound by SINE compounds (Figure 1). b-LMB was synthesized by coupling a biotin tag to LMB. We compared the inhibition of nuclear export and the cytotoxicity of b-LMB to that of the unmodified LMB. […] We then quantified the effects of these compounds on cell death in several cancer cell lines using an MTT cytotoxicity assay (Table 2).\nFor the typical Rev-GFP assay, U2OS cells stably expressing Rev-GFP [42] were cultured in 96 well plates at 7,500 - 15,000 cells/well. […] After fixation cells were stained with DAPI (Invitrogen) for 10 minutes at room temperature. Cells were imaged with a Nikon fluorescent microscope at 10X magnification and intensity of the GFP and nuclear area were measured and recorded. Cells were scored as either GFP nuclear positive or negative. Number of positive cells were divided by total number of cells in order to calculate percentage of cells with nuclear GFP per well."}, "ASPS-KY": {"test_system": "ASPS-KY", "test": "MTT cytotoxicity assay", "conditions": "read-out: Selinexor IC50 (μM)"}, "A549": {"test_system": "A549", "test": "MTT cytotoxicity assay", "conditions": "Homo sapiens, read-out: Selinexor IC50 (μM)"}, "HT1080 resistant": {"test_system": "HT1080 resistant", "test": "MTT cytotoxicity assay", "conditions": "Homo sapiens, HT-1080, read-out: Selinexor IC50 (μM)"}, "XPO1": {"target": "XPO1 (Homo sapiens, UniProt O14980)", "sequence (O14980 whole entry)": "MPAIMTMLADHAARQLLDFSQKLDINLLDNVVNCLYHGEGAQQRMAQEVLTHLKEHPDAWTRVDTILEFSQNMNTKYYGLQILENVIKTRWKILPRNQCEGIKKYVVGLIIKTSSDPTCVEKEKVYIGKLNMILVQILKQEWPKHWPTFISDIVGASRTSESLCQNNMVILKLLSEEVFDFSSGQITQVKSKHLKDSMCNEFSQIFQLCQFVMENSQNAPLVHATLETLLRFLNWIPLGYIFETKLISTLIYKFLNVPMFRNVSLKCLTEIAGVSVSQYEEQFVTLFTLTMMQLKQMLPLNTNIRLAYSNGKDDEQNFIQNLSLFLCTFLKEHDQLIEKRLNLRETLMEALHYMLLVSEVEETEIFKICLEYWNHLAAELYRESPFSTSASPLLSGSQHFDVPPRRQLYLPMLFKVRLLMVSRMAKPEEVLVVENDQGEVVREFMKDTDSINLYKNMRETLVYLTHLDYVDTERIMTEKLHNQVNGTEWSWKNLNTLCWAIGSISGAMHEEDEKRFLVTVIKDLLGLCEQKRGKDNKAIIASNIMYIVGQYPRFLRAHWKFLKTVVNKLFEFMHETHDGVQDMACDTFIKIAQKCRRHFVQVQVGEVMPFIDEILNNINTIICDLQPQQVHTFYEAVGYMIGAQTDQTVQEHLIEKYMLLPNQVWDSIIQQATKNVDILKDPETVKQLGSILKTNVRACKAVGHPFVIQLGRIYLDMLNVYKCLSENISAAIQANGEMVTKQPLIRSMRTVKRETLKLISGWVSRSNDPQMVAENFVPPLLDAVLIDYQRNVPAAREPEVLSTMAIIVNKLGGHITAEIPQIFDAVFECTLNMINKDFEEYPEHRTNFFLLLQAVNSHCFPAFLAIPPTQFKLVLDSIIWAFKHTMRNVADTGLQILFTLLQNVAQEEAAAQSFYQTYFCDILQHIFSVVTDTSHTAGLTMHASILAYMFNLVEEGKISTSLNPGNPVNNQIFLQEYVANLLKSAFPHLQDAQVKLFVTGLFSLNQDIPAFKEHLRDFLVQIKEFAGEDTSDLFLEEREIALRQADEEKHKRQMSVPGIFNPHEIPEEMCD", "test": "XPO1 occupancy assay in cultured cell lines (biotinylated probe pull-down, Simple Western)", "parameters": "Cells were collected, washed with PBS, and lysed with RIPA Buffer; endogenous in cells; host or cells: MM.1S", "experimental": "b-LMB was tested for the ability to bind XPO1 protein. First, a dose-response curve was generated by exposing MM.1S cells to increasing concentrations of b-LMB (0 – 500 nM) for 1.5 hours in culture. The cells were then collected, lysed, and a portion of the lysate (input) was reserved prior to incubating the remaining lysate with streptavidin-tagged beads overnight. After extensive washes, b-LMB bound XPO1 was eluted from the beads, and XPO1 from both input and bead eluate was detected and quantified by Simple Western on Peggy Sue. Simple Western allows for the chemiluminescent detection of proteins from small volumes of samples that are run through a matrix-filled capillary. The signal is detected by a CCD camera which generates a digital image and then reports quantitative results. […] The protein signals for XPO1 detected by Simple Western in Figure 2A were reported as mean peak areas and were used to compare levels of XPO1 present in each sample to produce a graphical representation of the ratio of free XPO1 detected at each concentration of b-LMB (Figure 2B). “Ratio of bound XPO1” is defined as the ratio of the mean peak area of b-LMB bound XPO1 detected in the eluate compared to the mean peak area of all XPO1 detected in the input lysate, while “free-fraction” refers to the amount of XPO1 not occupied by SINE compound, as described later.\nThe cells were then collected and processed for the XPO1 occupancy assay. […] For these assays, the “ratio of free-fraction XPO1” is calculated by dividing the mean peak areas of XPO1 occupied by b-LMB (from the eluate) by the total amount of XPO1 (from the input).\nCells were collected, washed with PBS, and lysed with RIPA Buffer (Thermo Scientific) with protease inhibitors [Complete Ultra Tablets, Mini, EDTA-free, Easy pack (Roche), PhosStop Easy (Roche)]. A portion of the lysate was reserved (input) while the rest was added to washed Dynabeads MyOne Streptavidin T1 (Invitrogen) with RIPA Buffer. Samples were incubated overnight with constant rotation at 4°C. Beads were then washed 5 times with modified RIPA (150 mM NaCl, 50 mM Tris, 1% NP-40, 0.1% Na deoxycholate, 1 mM EDTA, pH 7.8). The reserved portion of lysates (input) and the beads were each mixed with Protein Simple buffer (Protein Simple), DTT (Invitrogen), and fluorescent standards (Protein Simple), then boiled at 95°C for 10 min. Eluates and inputs were analyzed using a capillary western method (Peggy Sue; Protein Simple) with the following primary antibodies: XPO1 (Santa Cruz) and β-actin (Santa Cruz). Capillary westerns were performed by SBH Sciences (Natick, MA). Peak areas corresponding to the protein molecular weight of XPO1 and actin were compared for sample inputs, while the ratio of XPO1 peak areas in eluate to input (ratio of bound or free-fraction XPO1) versus compound concentration were used in XLFit model 205 to calculate 50% and 90% occupancy curves."}, "AML3": {"test_system": "AML3", "test": "MTT cytotoxicity assay"}, "HT1080": {"test_system": "HT1080", "test": "MTT cytotoxicity assay", "conditions": "Homo sapiens, HT-1080, read-out: Selinexor IC50 (μM)"}, "Kasumi-6": {"test_system": "Kasumi-6", "test": "MTT cytotoxicity assay", "conditions": "read-out: Selinexor IC50 (μM)"}, "[2]": {"conditions": "read-out: Selinexor IC50 (μM), MTT"}},
  "note": "“And” between values parts separate entries of the source, which are not always exact repeats. Equal values may be shown once. Read-outs that look alike come from different tables or passages of the source.",
  "data": [
    {"smiles": "O=C(/C=C\\n1cnc(-c2cc(C(F)(F)F)cc(C(F)(F)F)c2)n1)NNc1cnccn1", "note": "[Selinexor, selinexor]", "values": [
      {"measurement": "IC50", "setting": "AML2; 72 hours, read-out: IC50", "value": 0.09, "unit": "µM"},
      {"measurement": "IC50", "setting": "AML2; [2]", "value": 0.09, "unit": "µM"},
      {"measurement": "IC50", "setting": "MM.1S; 72 hours, read-out: IC50", "value": 0.02, "unit": "µM"},
      {"measurement": "IC50", "setting": "MM.1S; [2]", "value": 0.02, "unit": "µM"},
      {"measurement": "IC50", "setting": "[1]; 4 h, read-out: Rev-GFP (nM), U2OS cells stably expressing Rev-GFP, 4 hours treatment", "value": 40, "unit": "nM"},
      {"measurement": "IC50", "setting": "[1]; 4 h, read-out: RevGFP Assay IC50 (μM), Rev-GFP U2OS, selinexor 4 hours, 4 hours post washout", "value": 20, "unit": "nM"},
      {"measurement": "IC50", "setting": "[1]; read-out: Rev-GFP IC50 (μM), U2OS Rev-GFP cells", "value": 40, "unit": "nM"},
      {"measurement": "IC50", "setting": "[1]; read-out: RevGFP Assay IC50 (μM), Rev-GFP U2OS, selinexor 4 hours, 0 hours post washout", "value": 10, "unit": "nM"},
      {"measurement": "IC50", "setting": "[1]; read-out: RevGFP Assay IC50 (μM), Rev-GFP U2OS, selinexor 4 hours, 24 hours post washout", "value": 500, "unit": "nM"},
      {"measurement": "IC50", "setting": "[1]; read-out: RevGFP Assay IC50 (μM), Rev-GFP U2OS, selinexor 4 hours, 48 hours post washout", "value": 1300, "unit": "nM"},
      {"measurement": "IC50", "setting": "[1]; read-out: RevGFP Assay IC50 (μM), Rev-GFP U2OS, selinexor 4 hours, 72 hours post washout", "value": 6800, "unit": "nM"},
      {"measurement": "IC50", "setting": "[1]; read-out: RevGFP Assay IC50 (μM), Rev-GFP U2OS, selinexor 4 hours, 96 hours post washout", "value": 11400, "unit": "nM"},
      {"measurement": "IC50", "setting": "ASPS-KY", "value": "> 10", "unit": "µM"},
      {"measurement": "IC50", "setting": "A549", "value": 3, "unit": "µM"},
      {"measurement": "IC50", "setting": "HT1080 resistant", "value": 2.4, "unit": "µM"},
      {"measurement": "90% Occupancy selinexor", "setting": "XPO1; A549", "value": 0.56, "unit": "µM"},
      {"measurement": "90% Occupancy selinexor", "setting": "XPO1; AML2", "value": 0.22, "unit": "µM"},
      {"measurement": "90% Occupancy selinexor", "setting": "XPO1; AML3", "value": 0.46, "unit": "µM"},
      {"measurement": "90% Occupancy selinexor", "setting": "XPO1; ASPS-KY", "value": 0.72, "unit": "µM"},
      {"measurement": "90% Occupancy selinexor", "setting": "XPO1; HCT-116", "value": 0.76, "unit": "µM"},
      {"measurement": "90% Occupancy selinexor", "setting": "XPO1; HEL", "value": 0.31, "unit": "µM"},
      {"measurement": "90% Occupancy selinexor", "setting": "XPO1; HT1080", "value": 1.35, "unit": "µM"},
      {"measurement": "90% Occupancy selinexor", "setting": "XPO1; HT1080 resistant", "value": 1.67, "unit": "µM"},
      {"measurement": "90% Occupancy selinexor", "setting": "XPO1; Kasumi-6", "value": 0.57, "unit": "µM"},
      {"measurement": "90% Occupancy selinexor", "setting": "XPO1; LS174T", "value": 0.38, "unit": "µM"},
      {"measurement": "90% Occupancy selinexor", "setting": "XPO1; MM.1S", "value": 0.48, "unit": "µM"},
      {"measurement": "Avg 90% Occupancy (μM)", "setting": "XPO1; MM.1S cells, SINE compound 1 hour, then 1 nM b-LMB […]", "value": "0.52 +/− 0.05 (n = 2) μM"},
      {"measurement": "90% Occupancy", "setting": "XPO1; MM.1S cells, followed by 0.1 μM KPT-9058 as probe", "value": "0.1 µM and 0.10 µM"},
      {"measurement": "90% Occupancy selinexor", "setting": "XPO1; MV-4–11", "value": 0.61, "unit": "µM"},
      {"measurement": "90% of XPO1 occupancy", "setting": "XPO1; Rev-GFP U2OS cells, selinexor 1 hour, then 1 nM b-LMB […]", "value": 0.48, "unit": "µM"},
      {"measurement": "90% Occupancy", "setting": "XPO1; Rev-GFP U2OS, selinexor 4 hours, 0 hours post washout, 1 nM b-LMB", "value": 0.16, "unit": "µM"},
      {"measurement": "90% Occupancy", "setting": "XPO1; Rev-GFP U2OS, selinexor 4 hours, 4 hours post washout, 1 nM b-LMB", "value": 2.87, "unit": "µM"},
      {"measurement": "90% Occupancy", "setting": "XPO1; Rev-GFP U2OS, selinexor 4 hours, 24 hours post washout, 1 nM b-LMB", "value": "> 10", "unit": "µM"},
      {"measurement": "90% Occupancy", "setting": "XPO1; Rev-GFP U2OS, selinexor 4 hours, 48 hours post washout, 1 nM b-LMB", "value": "> 10", "unit": "µM"},
      {"measurement": "90% Occupancy", "setting": "XPO1; Rev-GFP U2OS, selinexor 4 hours, 72 hours post washout, 1 nM b-LMB", "value": "> 10", "unit": "µM"},
      {"measurement": "90% Occupancy", "setting": "XPO1; Rev-GFP U2OS, selinexor 4 hours, 96 hours post washout, 1 nM b-LMB", "value": "> 10", "unit": "µM"},
      {"measurement": "90% Occupancy selinexor", "setting": "XPO1; THP-1", "value": 0.94, "unit": "µM"},
      {"measurement": "90% Occupancy selinexor", "setting": "XPO1; UCH1", "value": 0.65, "unit": "µM"},
      {"measurement": "90% Occupancy selinexor", "setting": "XPO1; UCH2", "value": 0.89, "unit": "µM"},
      {"measurement": "IC50", "setting": "AML3; 72 hours, read-out: IC50", "value": 0.27, "unit": "µM"},
      {"measurement": "IC50", "setting": "AML3; [2]", "value": 0.27, "unit": "µM"},
      {"measurement": "IC50", "setting": "HT1080", "value": 0.07, "unit": "µM"},
      {"measurement": "IC50", "setting": "Kasumi-6", "value": 0.53, "unit": "µM"}
    ]}
  ]
}
